The subject of one assay is breast cancer cell lines. Particulars: read-out: EC50 previously reported; cited from earlier work.
Assay [1] concerns MCF-7 human breast cancer cells. As to the kind of experiment: cells. The text has this: Cell viability studies are typically conducted on cells that are actively dividing, in the linear range of logarithmic division. However, tumors are typically dense, highly populated 3-dimensional cultures.

In US20240316215A1, “CONTROLLED DRUG RELEASE MATERIAL” (ADURO MATERIAL AB, priority 2021, published 2024) one finds EC50 data, which are given here for one molecule.

A word on the EC50: it is the concentration at which the effect is half-maximal. With `NC(=O)NO` [hydroxyurea], the half-maximal effective concentration (EC50) was around 200 µM in the assay with breast cancer cell lines; 200 µM in assay [1] (MCF7, MCF-7 cells cultured at 1×10^4/well); 400 µM in assay [1] (MCF7, MCF-7 cells cultured at 2×10^4/well); 800 µM in assay [1] (MCF7, MCF-7 cells cultured at 4×10^4/well); 200 µM in assay [1] (MCF7, lowest cell concentration, 1×10^4 cells/well).
